Where “and” joins values, the source holds several entries; their conditions need not be identical. Equal entries are not always repeated.
Key:
DUX4 [1] = experiment: DUX4 expression downregulation by kinase family inhibitors (Table 1); assay type: cell-based; conditions: for EC50: DUX4 reduction; for Quantitation % of DUX4 reduction @the lowest significant [C]: at the lowest significant concentration; for lowest significant [C]: concentration in brackets at which the % DUX4 reduction is given
Genea049 FSHD hESC-SkM = experiment: FSHD hESC-SkM immunocytochemistry, Myosin Heavy Chain and nuclei (myogenic inhibition/toxicity); assay type: cell-based, human
Procedure: (§1) FIG. 6 provides an example of a screening and culturing workflow for hESC-SkM assays. At Day 0, hESC-derived myoblasts are thawed into a 96-well plate in myoblast medium (Genea BioCells). On Day 2, the medium is replaced with new myoblast medium containing 1.15 μM. Decitabine. […] On Day 7, the myotubes are analyzed. For example, the myotubes may be analyzed for MHC expression or DUX4 expression.
(§2) Genea049 FSHD-affected human Embryonic Stem Cells (hESCs) were differentiated using Genea's myogenic differentiation protocol (Caron et 2015) to the myoblast stage and cryopreserved. Frozen myoblasts were resuscitated and 4500 cells were plated into each well of a 96-well collagen I coated tissue culture plate in myoblast medium. After two days of cell growth medium was changed to 100 μL per well myoblast medium containing 1.15 μM Decitabine. […] Cells were allowed to differentiate to myotubes for four additional days then were fixed and analyzed for quantification of DUX4 expression, Myosin Heavy Chain expression, and nuclei number. Triplicate wells of each condition were averaged.
as §2, with “et al.,” for “et”, “number by high-content imaging.” for “number.”

DUX4 [2] = experiment: FSHD hESC-SkM immunocytochemistry, DUX4 expression; assay type: cell-based, human; conditions: Genea049 hESC-SkM
Procedure: as §1, §2
as §2, with “et al.,” for “et”, “number by high-content imaging.” for “number.”

Compound	EC50 (DUX4 [1])	Quantitation % of DUX4 reduction @the lowest significant [C] (DUX4 [1])	lowest significant [C] (DUX4 [1])	Myosin Heavy Chain expression and nuclei count, dose curve (Genea049 FSHD hESC-SkM; 10 nM-3 μM, four days)	Myosin Heavy Chain expression and nuclei count (Genea049 FSHD hESC-SkM; 100 nM, four days of culture)	DUX4 expression (DUX4 [2]; 100 nM, four days of culture during myotube formation)	DUX4 expression, dose curve (DUX4 [2]; six concentration points 10 nM-3 μM, four days)
Cc1ccc(NC(=O)c2ccc(CN3CC[C@H](N(C)C)C3)c(C(F)(F)F)c2)cc1Nc1ncc(-c2cncnc2)cn1 [Lyn-IN-1]	175 nM	70.73%	0.88 µM	–	–	–	–
COc1cc(Nc2c(C#N)cnc3cc(OCCCN4CCN(C)CC4)c(OC)cc23)c(Cl)cc1Cl [Bosutinib]	–	70.58%	3 µM	–	–	–	–
Cc1cn(-c2cc(NC(=O)c3ccc(C)c(Nc4nccc(-c5cccnc5)n4)c3)cc(C(F)(F)F)c2)cn1 [Nilotinib]	–	76.71%	5 µM	–	–	–	–
Cc1ccc(NC(=O)c2ccc(CN3CC[C@H](N(C)C)C3)c(C(F)(F)F)c2)cc1Nc1nccc(-c2cncnc2)n1 [Bafetinib]	132 nM	67.90%	2.08 µM	–	–	–	–
Cc1ccc(NC(=O)c2ccc(CN3CCN(C)CC3)cc2)cc1Nc1nccc(-c2cccnc2)n1 [Imatinib]	–	61.13%	–	–	–	–	–
NS(=O)(=O)OC[C@@H]1C[C@@H](n2ccc3c(N[C@H]4CCc5ccccc54)ncnc32)C[C@@H]1O [GBC0772, MLN4924]	–	–	–	decreased Myosin Heavy Chain expression and nuclei count	decreased Myosin Heavy Chain expression and nuclei count	decreased DUX4 expression	dose-dependent decreased DUX4 expression
CC(C)(C)n1nc(-c2ccc(Cl)cc2)c2c(N)ncnc21 [PP2]	153 nM and 287 nM	41.77% and 66.61%	–	–	–	–	–
Cc1ncc(NC(=O)c2ccc(CN3CCN(C)CC3)c(C(F)(F)F)c2)cc1Nc1nccc(-c2cccnc2)n1 [Flumatinib]	82 nM	76.09%	2.08 µM	–	–	–	–
